Measured values taken from PubChem BioAssay AID1845212 (Molecular Pharmacology Branch, DTP, NCI, 2023).

System: NCI-H719 tumor spheroids, viability
Test: Anticancer human tumor NCI-H719 cell line growth inhibition;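 note: spheroids exposed to compounds for seven days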;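 for viability, T/C: percent viability relative to DMSO vehicle control as 100%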
Details: spheroids with HUVEC and MSC; for IC50: curve of first compound; for viability, T/C: stronger effect = lower value
Outline: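 Complex spheroids of malignant cells with endothelial cells and mesenchymal stem cells; agents alone or combined, from near clinical Cmax (or 10 microM if unknown) down in half-log steps, 0.25% DMSO final.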

Structure (SMILES): [2H]c1nc(C)nc([2H])c1-c1cc(NC[C@@H](C)c2cccc3c(C(=O)NC)ccnc23)ncn1 + CC[C@@]1(O)C(=O)OCc2c1cc1n(c2=O)Cc2cc3c(CN(C)C)c(O)ccc3nc2-1
- IC50 (second compound 0.003 µM): > 10000 nM
- IC50 (second compound 0.00949 µM): < 31.6 nM
- IC50 (second compound 0.03 µM): < 31.6 nM
- IC50 (second compound 0.0949 µM): < 31.6 nM
- IC50 (second compound 0.3 µM): < 31.6 nM
- viability, T/C (second compound 0.003 µM, first compound 0.0316 µM): 51%
- viability, T/C (second compound 0.003 µM, first compound 0.1 µM): 62.2%
- viability, T/C (second compound 0.003 µM, first compound 0.316 µM): 63.5%
- viability, T/C (second compound 0.003 µM, first compound 1 µM): 52%
- viability, T/C (second compound 0.003 µM, first compound 3.16 µM): 66%
- viability, T/C (second compound 0.003 µM, first compound 10 µM): 51.4%
- viability, T/C (second compound 0.00949 µM, first compound 0.0316 µM): 10.3%
- viability, T/C (second compound 0.00949 µM, first compound 0.1 µM): 8.59%
- viability, T/C (second compound 0.00949 µM, first compound 0.316 µM): 8.43%
- viability, T/C (second compound 0.00949 µM, first compound 1 µM): 7.06%
- viability, T/C (second compound 0.00949 µM, first compound 3.16 µM): 6.95%
- viability, T/C (second compound 0.00949 µM, first compound 10 µM): 9.89%
- viability, T/C (second compound 0.03 µM, first compound 0.0316 µM): 7.23%
- viability, T/C (second compound 0.03 µM, first compound 0.1 µM): 6.65%
- viability, T/C (second compound 0.03 µM, first compound 0.316 µM): 6.56%
- viability, T/C (second compound 0.03 µM, first compound 1 µM): 8.39%
- viability, T/C (second compound 0.03 µM, first compound 3.16 µM): 8.61%
- viability, T/C (second compound 0.03 µM, first compound 10 µM): 8.73%
- viability, T/C (second compound 0.0949 µM, first compound 0.0316 µM): 7.9%
- viability, T/C (second compound 0.0949 µM, first compound 0.1 µM): 7.8%
- viability, T/C (second compound 0.0949 µM, first compound 0.316 µM): 7.91%
- viability, T/C (second compound 0.0949 µM, first compound 1 µM): 7.63%
- viability, T/C (second compound 0.0949 µM, first compound 3.16 µM): 7.79%
- viability, T/C (second compound 0.0949 µM, first compound 10 µM): 9.29%
- viability, T/C (second compound 0.3 µM, first compound 0.0316 µM): 8.56%
- viability, T/C (second compound 0.3 µM, first compound 0.1 µM): 8.32%
- viability, T/C (second compound 0.3 µM, first compound 0.316 µM): 8.45%
- viability, T/C (second compound 0.3 µM, first compound 1 µM): 8.64%
- viability, T/C (second compound 0.3 µM, first compound 3.16 µM): 8.15%
- viability, T/C (second compound 0.3 µM, first compound 10 µM): 8.2%
